Series [1] has as its system H. influenza. The note with it: middle ear infections; cited from earlier work.
Series [2] has as its system S. pneumoniae. The note with it: middle ear infections; cited from earlier work.
The nature of series [3]: pH of ciprofloxacin solutions. The series is classed as physicochemical. The note with it: 1% ciprofloxacin solution.

Molecules are shown by their SMILES.

The values that follow come from patent US8822410B2, “Tympanic membrane permeating ear drops and uses thereof” (Children's Medical Center Corporation, priority 2008, dated 2014).

In the case of `O=C(O)c1cn(C2CC2)c2cc(N3CCNCC3)c(F)cc2c1=O` [ciprofloxacin], the minimum inhibitory concentration result in series [1] and in series [2] was “about 4 μg/mL” throughout. For the same compound, the “pH of ciprofloxacin solution” value in series [3] is recorded as 3-4.
